Source: US20240279207A1, “SUBSTITUTED ACYL SULFONAMIDES FOR TREATING CANCER” (The Broad Institute, Inc., priority 2020, published 2024)
Where two headings read alike, the source gives them in different places.

Legend:
ZR-75-1 cells = assay: ZR-75-1 proliferation assay; type: cell-based; conditions: Homo sapiens, ZR-75-1, 144 h, Alamar Blue, read-out: ZR75-1 proliferation assay, EC50 [M] (arithmetic mean)
Text: (§1) For compound characterization cell survival assays were routinely run in two cell lines. ZR-75-1 is a breast carcinoma cell line containing a focal KAT6A amplification and high KAT6A protein expression. Proliferation of this cell line is inhibited upon treatment with KAT6A inhibitors. As a negative control cell line MDA-MB-436 were used. These cells carry a […] deletion of the KAT6A gene, have a low KAT6A protein expression and are not growth inhibited upon treatment with KAT6A inhibitors.
(§2) For measurements cell lines were plated at the below indicated concentration per […] in 96-well plates in a humidified incubator at 37° C. and 5% CO2.
ZR-75-1 (ATCC, CRL-1500; breast carcinoma); 3000 cells per well; culture medium: RPMI 1640 (Biochrom #FG 1215) medium containing 2.5% FBS (Biochrom #S0615).
(§3) Each sample was prepared as triplicate and rim wells were excluded. Plates were incubated at 37° C. and 5% CO2 for 144 h. Cell viability was measured by adding 10 μL of Alamar Blue Reagent (Invitrogen #DAL 1100) and plates were incubated for 2 h at 37° C. and 5% CO2. Fluorescence was measured at 590 nm wavelength with a Tecan Spark or Victor X3 MTP-Reader (PerkinElmer).

[1] = system: ESR1 transcription in MVLN cells; assay: MVLN reporter assay: repression of ESR1 transcription (luciferase signal); type: cell-based; conditions: luciferase signal after 24 h, read-out: MVLN reporter assay, IC50 [M] (arithmetic mean)
Outline: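 To control for cell loss, Alamar Blue (2 h, 530/590 nm) precedes the 24 h luciferase measurement. The reporter is an ERE from the Xenopus vitellogenin A2 gene driving luciferase, stably transfected into ER-expressing MVLN cells; duplicate samples.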

LCLC97TM1 = LCLC97TM1 proliferation assay; type: cell-based; conditions: Homo sapiens, LCLC-97TM1, LCLC97TM1; read-out: LCLC97TM1 proliferation assay; EC50 [M] (arithmetic mean)
MDA-MB-436 cells = assay: MDA-MB-436 proliferation assay (negative control cell line); type: cell-based; conditions: 144 h, Alamar Blue, read-out: MDA-MB-436 proliferation assay, EC50 [M] (arithmetic mean)
Text: as §1, §2
MDA-MB-436 (CLS, 300278; breast adenocarcinoma); 3000 cells per well; culture medium: DMEM/Ham's F12 (Biochrom #FG 4815) medium containing 2.5% FBS (Biochrom #S0615).
as §3

[2] = molecular target: T1, Recombinant human His-tagged Kat6a protein (amino acids 194-810) (Homo sapiens, UniProt Q92794); assay: Kat6a activity assay (TR-FRET, acetylation of Histone-H4-derived peptide); type: biochemical; conditions: 60 mins at 22° C., 220 nM H4 peptide, 600 nM Acetyl Coenzyme A, read-out: KAT6A - DPF/HAT domain IC50 [mol/l] (arithmetic mean)
T1 construct: Kat6a protein (amino acids 194-810); His
T1 sequence (Q92794 194-810): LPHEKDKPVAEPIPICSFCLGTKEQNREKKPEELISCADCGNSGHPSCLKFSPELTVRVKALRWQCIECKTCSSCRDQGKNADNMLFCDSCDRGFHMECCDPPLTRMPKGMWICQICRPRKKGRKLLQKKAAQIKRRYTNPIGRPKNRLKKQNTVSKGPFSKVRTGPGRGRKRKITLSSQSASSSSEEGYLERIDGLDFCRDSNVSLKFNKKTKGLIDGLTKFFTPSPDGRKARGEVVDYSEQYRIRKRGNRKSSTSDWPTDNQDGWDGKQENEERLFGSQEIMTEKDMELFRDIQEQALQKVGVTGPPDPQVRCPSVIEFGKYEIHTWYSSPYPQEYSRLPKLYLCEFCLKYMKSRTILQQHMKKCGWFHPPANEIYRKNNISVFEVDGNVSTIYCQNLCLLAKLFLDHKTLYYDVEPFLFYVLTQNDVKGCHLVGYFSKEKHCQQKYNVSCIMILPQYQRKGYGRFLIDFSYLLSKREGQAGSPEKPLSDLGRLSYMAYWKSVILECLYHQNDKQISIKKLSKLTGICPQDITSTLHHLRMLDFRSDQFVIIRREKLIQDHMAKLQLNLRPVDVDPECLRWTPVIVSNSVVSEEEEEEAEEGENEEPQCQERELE

Compound | EC50 (ZR-75-1 cells) | IC50 ([1]; Homo sapiens, MVLN, 24 h) | EC50 (LCLC97TM1) | EC50 (MDA-MB-436 cells; Homo sapiens) | IC50 [2] | IC50 [1] | EC50 (MDA-MB-436 cells)
O=C(NS(=O)(=O)c1c(OCc2ccccc2)cccc1OC1CCC1)c1cc2c(F)cc(N3CCC3)cc2o1 [Example 5, 6-(Azetidin-1-yl)-N-[2-(benzyloxy)-6-(cyclobutyloxy)benzene-1-sulfonyl]-4-fluoro-1-benzofuran-2-carboxamide] | 3.57e-06 M | 6.43e-08 M | 9.88e-06 M | > 2e-05 M | 0.00142 µM |  | 
CCOc1ccc(C)cc1S(=O)(=O)NC(=O)c1cc2c(F)cc(N3CCC3)cc2o1 [Example 6, 6-(Azetidin-1-yl)-N-(2-ethoxy-5-methylbenzene-1-sulfonyl)-4-fluoro-1-benzofuran-2-carboxamide] | 3.28e-08 M | 7.45e-08 M | 3.12e-07 M | > 2e-05 M | 0.0349 µM |  | 
CCOc1cccc(OCc2ccccc2)c1S(=O)(=O)NC(=O)c1cc2c(F)cc(N3CCC3)cc2o1 [Example 7, 6-(Azetidin-1-yl)-N-[2-(benzyloxy)-6-ethoxybenzene-1-sulfonyl]-4-fluoro-1-benzofuran-2-carboxamide] | 3.7e-07 M | 1.23e-07 M | 2.92e-07 M | > 2e-05 M | 0.00415 µM |  | 
CCCOc1cccc(OCC)c1S(=O)(=O)NC(=O)c1cc2c(F)cc(N3CCC3)cc2o1 [Example 10, 6-(Azetidin-1-yl)-N-(2-ethoxy-6-propoxybenzene-1-sulfonyl)-4-fluoro-1-benzofuran-2-carboxamide] | 2.21e-07 M | 1.36e-07 M | 6.61e-07 M | > 2e-05 M | 0.00712 µM |  | 
CCCOc1cccc(OCCC)c1S(=O)(=O)NC(=O)c1cc2c(F)cc(N3CCC3)cc2o1 [Example 17, 6-(Azetidin-1-yl)-N-(2,6-dipropoxybenzene-1-sulfonyl)-4-fluoro-1-benzofuran-2-carboxamide] | 2.76e-07 M | 1.76e-07 M | 8.49e-07 M | > 2e-05 M | 0.00447 µM |  | 
O=C(NS(=O)(=O)c1ccccc1-c1ccccc1)c1cc2c(F)cc(N3CCC3)cc2o1 [Example 20, Sodium {[6-(azetidin-1-yl)-4-fluoro-1-benzofuran-2-yl]carbonyl}([biphenyl]-2-ylsulfonyl)azanide] | 2.87e-07 M |  | 1.42e-06 M |  | 0.0342 µM | 3.03e-07 M | > 2e-05 M
CCOc1ccc(C(C)(C)C)cc1S(=O)(=O)NC(=O)c1cc2c(F)cc(N3CCC3)cc2o1 [Example 78, 6-(azetidin-1-yl)-N-(5-tert-butyl-2-ethoxybenzene-1-sulfonyl)-4-fluoro-1-benzofuran-2-carboxamide] | 5.87e-08 M | 4.95e-09 M | 5.75e-08 M | > 2e-05 M | 0.00141 µM |  | 
CC1(C)CCc2cccc(S(=O)(=O)NC(=O)c3cc4c(F)cc(N5CCC5)cc4o3)c2O1 [Example 80, 6-(Azetidin-1-yl)-N-(2,2-dimethyl-3,4-dihydro-2H-1-benzopyran-8-sulfonyl)-4-fluoro-1-benzofuran-2-carboxamide] | 1.49e-07 M | 7.27e-08 M | 3.17e-07 M | > 2e-05 M | 0.0121 µM |  | 
CCOc1ccccc1S(=O)(=O)NC(=O)c1cc2ccc(N3CC(F)(F)C3)cc2o1 [Example 118, 6-(3,3-Difluoroazetidin-1-yl)-N-(2-ethoxybenzene-1-sulfonyl)-1-benzofuran-2-carboxamide] | 2.46e-06 M | 1.2e-06 M | 2.72e-06 M | > 2e-05 M | 1.99 µM |  | 
O=C(NS(=O)(=O)c1ccccc1-c1ccccc1)c1cc2ccc(N3CC(F)(F)C3)cc2o1 [Example 119, N-([1,1′-biphenyl]-2-sulfonyl)-6-(3,3-difluoroazetidin-1-yl)-1-benzofuran-2-carboxamide] | 3.7e-06 M | 3.04e-06 M | 1.46e-05 M | > 2e-05 M | 1.1 µM |  | 
